Patent US10350271B2, “Lipidated peptides for lowering blood glucose” (USTAV ORGANICKE CHEMIE A BIOCHEMIE AKADEMIE VED CR, V.V.I., priority 2014, dated 2019)
Square brackets hold non-standard residues; d marks the D form. Peptide text beside a SMILES is read from it. * marks the point of attachment. Phe(4-NO2) = N[C@@H](Cc1ccc([N+](=O)[O-])cc1)C(=O)O; Phe(3,4-Cl2) = N[C@@H](Cc1ccc(Cl)c(Cl)c1)C(=O)O; Phe(F5) = N[C@@H](Cc1c(F)c(F)c(F)c(F)c1F)C(=O)O; Myristoyl = CCCCCCCCCCCCCC(=O)*; Nle = CCCC[C@H](N)C(=O)O; Sar = CNCC(=O)O

Experiments:
[1] = molecular target: T1, human PrRP receptor GPR10 (Homo sapiens, UniProt P49683); test: Competitive binding in CHO cells transfected with human GPR10 (human 125I-PrRP31); settings: for Ki: CHO cells, human 125I-PrRP31, read-out: Ki, GPR10 human receptor transfected in CHO cells; for % of PrRP31, GPR10 human receptor transfected in CHO cells: affinity relative to PrRP31
T1 construct: host or cells: CHO cells
T1 sequence (P49683 1-370): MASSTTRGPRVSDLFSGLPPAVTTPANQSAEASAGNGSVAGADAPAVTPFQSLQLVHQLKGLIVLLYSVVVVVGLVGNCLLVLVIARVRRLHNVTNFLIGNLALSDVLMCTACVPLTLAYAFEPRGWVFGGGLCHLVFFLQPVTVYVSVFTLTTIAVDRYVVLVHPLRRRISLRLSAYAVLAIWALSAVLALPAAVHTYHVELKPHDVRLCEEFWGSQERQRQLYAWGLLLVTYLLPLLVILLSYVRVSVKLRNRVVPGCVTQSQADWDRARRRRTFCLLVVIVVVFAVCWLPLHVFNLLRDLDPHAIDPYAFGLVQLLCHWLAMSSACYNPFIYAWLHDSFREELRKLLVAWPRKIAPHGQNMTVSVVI
Procedure: (§1) Competitive binding experiments were performed according to Motulsky and Neubig (Motulsky, A., et al., “Analyzing radioligand binding data,” Curr Protoc Neurosci, Chapter 7, Unit 7.5, 2002). Binding experiments were conducted with rat pituitary cells, and with Chinese Hamster Ovary (CHO) cells as follows:
CHO cells transfected with human PrRP receptor GPR10 (Perkin Elmer, USA) were grown on 24-well plates coated with polyethyleneimine. The cells were grown to the optimal density of 40-80 thousand cells per well. The following agents were used for the experiment: binding buffer (25 mmol·l^−1 Tris, pH 7.4; 118 mmol·l^−1 NaCl, 10 mmol·l^−1 MgCl2, 10 mmol·l^−1 CaCl2, 5.5 mmol·l^−1 glucose, 0.5 mg/ml BSA), unlabeled analogs of PrRP (i.e. the analog being tested) at a final concentration between 10^−11 to 10^−4 mol·l^−1, and radiolabeled human ^125I-PrRP31 at a final concentration of 5×10^−11 mol·l^−1.
(§2) Plates were incubated for 60 minutes at room temperature. After incubation, the cells were solubilized in 0.1 mol/l solution of NaOH, and the radioactivity bound to the cells was counted using a γ-counter. The experiments were performed in duplicate, and repeated at least three times.
(§3) Graph Pad Prism Software (San Diego, Calif., USA) was used for evaluating the competitive binding experiments. Nonlinear regression was performed using a onsite binding model.

rat PrRP receptor = molecular target: T2, rat PrRP receptor (Rattus norvegicus, UniProt Q64121); test: Competitive binding in RC-4B/C rat pituitary cells (125I-rat PrRP31); settings: for Ki: RC-4B/C cells, displacement of 125I-rat PrRP31, read-out: Ki, RC-4B/C rat pituitary cells ^25I-rat PrRP31; for % of PrRP31, RC-4B/C rat pituitary cells: affinity relative to PrRP31
T2 construct: host or cells: RC-4B/C rat pituitary cell line
T2 sequence (Q64121 1-370): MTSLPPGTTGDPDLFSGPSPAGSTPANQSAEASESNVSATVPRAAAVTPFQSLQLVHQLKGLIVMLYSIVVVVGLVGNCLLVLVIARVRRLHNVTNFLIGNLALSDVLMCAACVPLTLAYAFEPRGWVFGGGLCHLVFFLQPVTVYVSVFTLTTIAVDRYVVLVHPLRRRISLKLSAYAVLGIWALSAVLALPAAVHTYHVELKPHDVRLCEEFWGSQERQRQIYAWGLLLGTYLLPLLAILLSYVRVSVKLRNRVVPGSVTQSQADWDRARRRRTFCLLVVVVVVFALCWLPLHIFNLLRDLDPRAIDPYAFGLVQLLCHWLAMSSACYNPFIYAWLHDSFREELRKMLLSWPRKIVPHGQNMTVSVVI
Procedure: as §1
The rat pituitary cell line RC-4B/C (ATCC, Manassas, USA) was grown on 24-well plates which had their bottom coated with polyethyleneimine. The cells were grown to the optimal density of 300-450 thousand cells per well. The following agents were used for the experiment: binding buffer (20 mmol·l^−1 HEPES, Ph 7.4; 118 mmol·l^−1 NaCl, 4.7 mmol·l^−1 KCl, 5 mmol·l^−1 MgCl2, 5.5 mmol·l^−1 glucose, 1 mg/ml BSA, 0.1 BPTI), unlabeled analogs of PrRP (i.e. the analog being tested) at a final concentration between 10^−11 to 10^−4 mol·l^−1, and rat ^125I-PrRP31 (labeled with radioactive Iodine-125) at a final concentration of […] (Maixnerová et al., 2011).
as §2, §3

| Ki [1] [nM] | % of PrRP31, GPR10 human receptor transfected in CHO cells [1] [%] | Ki (rat PrRP receptor) [nM] | % of PrRP31, RC-4B/C rat pituitary cells (rat PrRP receptor) [%] | SMILES |
| --- | --- | --- | --- | --- |
| 4.8 ± 0.88 | 81 | 19.9 ± 5.9 | 2.5 | CCCC[C@H](NC(=O)[C@H](CO)NC(=O)[C@H](Cc1c[nH]cn1)NC(=O)[C@H](CCC(N)=O)NC(=O)[C@H](Cc1c[nH]cn1)NC(=O)[C@H](C)NC(=O)[C@H](CCCNC(=N)N)NC(=O)[C@@H](N)CO)C(=O)N[C@@H](CCC(=O)O)C(=O)N[C@H](C(=O)N[C@@H](CCCNC(=N)N)C(=O)N[C@H](C(=O)N1CCC[C@H]1C(=O)N[C@@H](CC(=O)O)C(=O)N[C@H](C(=O)N[C@@H](CC(N)=O)C(=O)N1CCC[C@H]1C(=O)N[C@@H](C)C(=O)N[C@@H](Cc1c[nH]c2ccccc12)C(=O)N[C@@H](Cc1ccc(O)cc1)C(=O)N[C@H](C(=O)NCC(=O)N[C@@H](CCCNC(=N)N)C(=O)NCC(=O)N[C@H](C(=O)N[C@@H](CCCNC(=N)N)C(=O)N1CCC[C@H]1C(=O)N[C@H](C(=O)NCC(=O)N[C@@H](CCCNC(=N)N)C(=O)N[C@@H](Cc1ccc([N+](=O)[O-])cc1)C(N)=O)C(C)C)[C@@H](C)CC)[C@@H](C)O)[C@@H](C)CC)[C@@H](C)O)[C@@H](C)O [Analog 16] (H-SRAHQHS[Nle]ETRTPDINPAWYTGRGIRPVGR[Phe(4-NO2)]-NH2; N-terminus assumed) |
| 1.59 ± 1.05 | 245 | 1.97 ± 1.26 | 250 | CCCCCCCCCCCCCC(=O)N[C@@H](CO)C(=O)N[C@@H](CCCNC(=N)N)C(=O)N[C@@H](C)C(=O)N[C@@H](Cc1c[nH]cn1)C(=O)N[C@@H](CCC(N)=O)C(=O)N[C@@H](Cc1c[nH]cn1)C(=O)N[C@@H](CO)C(=O)N[C@@H](CCCC)C(=O)N[C@@H](CCC(=O)O)C(=O)N[C@H](C(=O)N[C@@H](CCCNC(=N)N)C(=O)N[C@H](C(=O)N1CCC[C@H]1C(=O)N[C@@H](CC(=O)O)C(=O)N[C@H](C(=O)N[C@@H](CC(N)=O)C(=O)N1CCC[C@H]1C(=O)N[C@@H](C)C(=O)N[C@@H](Cc1c[nH]c2ccccc12)C(=O)N[C@@H](Cc1ccc(O)cc1)C(=O)N[C@H](C(=O)NCC(=O)N[C@@H](CCCNC(=N)N)C(=O)NCC(=O)N[C@H](C(=O)N[C@@H](CCCNC(=N)N)C(=O)N1CCC[C@H]1C(=O)N[C@H](C(=O)NCC(=O)N[C@@H](CCCNC(=N)N)C(=O)N[C@@H](Cc1ccc([N+](=O)[O-])cc1)C(N)=O)C(C)C)[C@@H](C)CC)[C@@H](C)O)[C@@H](C)CC)[C@@H](C)O)[C@@H](C)O [Analog 17] (Myristoyl-SRAHQHS[Nle]ETRTPDINPAWYTGRGIRPVGR[Phe(4-NO2)]-NH2) |
|  | 193 |  | 152 | CCCC[C@H](NC(=O)[C@H](CO)NC(=O)[C@H](Cc1c[nH]cn1)NC(=O)[C@H](CCC(N)=O)NC(=O)[C@H](Cc1c[nH]cn1)NC(=O)[C@H](C)NC(=O)[C@H](CCCNC(=N)N)NC(=O)[C@@H](N)CO)C(=O)N[C@@H](CCC(=O)O)C(=O)N[C@H](C(=O)N[C@@H](CCCNC(=N)N)C(=O)N[C@H](C(=O)N1CCC[C@H]1C(=O)N[C@@H](CC(=O)O)C(=O)N[C@H](C(=O)N[C@@H](CC(N)=O)C(=O)N1CCC[C@H]1C(=O)N[C@@H](C)C(=O)N[C@@H](Cc1c[nH]c2ccccc12)C(=O)N[C@@H](Cc1ccc(O)cc1)C(=O)N[C@H](C(=O)NCC(=O)N[C@@H](CCCNC(=N)N)C(=O)NCC(=O)N[C@H](C(=O)N[C@@H](CCCNC(=N)N)C(=O)N1CCC[C@H]1C(=O)N[C@H](C(=O)NCC(=O)N[C@@H](CCCNC(=N)N)C(=O)N[C@@H](Cc1ccc(O)cc1)C(N)=O)C(C)C)[C@@H](C)CC)[C@@H](C)O)[C@@H](C)CC)[C@@H](C)O)[C@@H](C)O [Analog 23] (H-SRAHQHS[Nle]ETRTPDINPAWYTGRGIRPVGRY-NH2) |

The next lines start with the compound.

| SMILES | Ki [1] [nM] | % of PrRP31, GPR10 human receptor transfected in CHO cells [1] [%] | Ki (rat PrRP receptor) [nM] | % of PrRP31, RC-4B/C rat pituitary cells (rat PrRP receptor) [%] |
| --- | --- | --- | --- | --- |
| CCCC[C@H](NC(=O)[C@H](CO)NC(=O)[C@H](Cc1c[nH]cn1)NC(=O)[C@H](CCC(N)=O)NC(=O)[C@H](Cc1c[nH]cn1)NC(=O)[C@H](C)NC(=O)[C@H](CCCNC(=N)N)NC(=O)[C@@H](N)CO)C(=O)N[C@@H](CCC(=O)O)C(=O)N[C@H](C(=O)N[C@@H](CCCNC(=N)N)C(=O)N[C@H](C(=O)N1CCC[C@H]1C(=O)N[C@@H](CC(=O)O)C(=O)N[C@H](C(=O)N[C@@H](CC(N)=O)C(=O)N1CCC[C@H]1C(=O)N[C@@H](C)C(=O)N[C@@H](Cc1c[nH]c2ccccc12)C(=O)N[C@@H](Cc1ccc(O)cc1)C(=O)N[C@H](C(=O)NCC(=O)N[C@@H](CCCNC(=N)N)C(=O)NCC(=O)N[C@H](C(=O)N[C@@H](CCCNC(=N)N)C(=O)N1CCC[C@H]1C(=O)N[C@H](C(=O)NCC(=O)N[C@@H](CCCNC(=N)N)C(=O)N[C@@H](Cc1ccc(Cl)c(Cl)c1)C(N)=O)C(C)C)[C@@H](C)CC)[C@@H](C)O)[C@@H](C)CC)[C@@H](C)O)[C@@H](C)O [Analog 13] (H-SRAHQHS[Nle]ETRTPDINPAWYTGRGIRPVGR[Phe(3,4-Cl2)]-NH2; N-terminus assumed) | 2.27 ± 0.48 | 171 | 3.84 ± 0.93 | 128 |
| CCCC[C@H](NC(=O)[C@H](CO)NC(=O)[C@H](Cc1c[nH]cn1)NC(=O)[C@H](CCC(N)=O)NC(=O)[C@H](Cc1c[nH]cn1)NC(=O)[C@H](C)NC(=O)[C@H](CCCNC(=N)N)NC(=O)[C@@H](N)CO)C(=O)N[C@@H](CCC(=O)O)C(=O)N[C@H](C(=O)N[C@@H](CCCNC(=N)N)C(=O)N[C@H](C(=O)N1CCC[C@H]1C(=O)N[C@@H](CC(=O)O)C(=O)N[C@H](C(=O)N[C@@H](CC(N)=O)C(=O)N1CCC[C@H]1C(=O)N[C@@H](C)C(=O)N[C@@H](Cc1c[nH]c2ccccc12)C(=O)N[C@@H](Cc1ccc(O)cc1)C(=O)N[C@H](C(=O)NCC(=O)N[C@@H](CCCNC(=N)N)C(=O)NCC(=O)N[C@H](C(=O)N[C@@H](CCCNC(=N)N)C(=O)N1CCC[C@H]1C(=O)N[C@H](C(=O)NCC(=O)N[C@@H](CCCNC(=N)N)C(=O)N[C@@H](Cc1c(F)c(F)c(F)c(F)c1F)C(N)=O)C(C)C)[C@@H](C)CC)[C@@H](C)O)[C@@H](C)CC)[C@@H](C)O)[C@@H](C)O [Analog 21] (H-SRAHQHS[Nle]ETRTPDINPAWYTGRGIRPVGR[Phe(F5)]-NH2) |  | 45 |  | 51 |
| CC[C@H](C)[C@H](NC(=O)CN(C)C(=O)[C@H](CCCNC(=N)N)NC(=O)CNC(=O)[C@@H](NC(=O)[C@H](Cc1ccc(O)cc1)NC(=O)[C@H](Cc1c[nH]c2ccccc12)NC(=O)[C@H](C)NC(=O)[C@@H]1CCCN1C(=O)[C@H](CC(N)=O)NC(=O)[C@@H](NC(=O)[C@H](CC(=O)O)NC(=O)[C@@H]1CCCN1C(=O)[C@@H](N)[C@@H](C)O)[C@@H](C)CC)[C@@H](C)O)C(=O)N[C@@H](CCCNC(=N)N)C(=O)N1CCC[C@H]1C(=O)N[C@H](C(=O)NCC(=O)N[C@@H](CCCNC(=N)N)C(=O)N[C@@H](Cc1ccccc1)C(N)=O)C(C)C [Analog 27] (H-TPDINPAWYTGR[Sar]IRPVGRF-NH2) |  | 86 |  | 62 |
